Measurements reported in patent US20260015322A1, “DELIVERY OF THERAPEUTIC ALKALOID COMPOUNDS” (priority 2022, published 2026).

How the values were obtained:
[1] = Plasma Stability Assay (Example A2), human plasma; assay type: in vitro ADME; conditions: 37° C., prodrug remaining
Protocol: (§1) Each test was carried out in duplicate for each time point; 0 min, 15 min, 30 min, 60 min, 120, 240 min. […]

[2] = Plasma Stability Assay (Example A2), mouse plasma; assay type: in vitro ADME; conditions: Mouse Plasma, 37° C., prodrug remaining
Protocol: as §1

[3] = Hydrolysis Assay - Condition 2 (DI Water); assay type: physicochemical; conditions: 25° C., 0.5 mM
Protocol: 50 uL of compound (10 mM) in DMSO was diluted into 950 uL of DI water to a final concentration of 0.5 mM. The hydrolysis kinetics were conducted at 25° C. and measured by LCMS at a certain time interval.
(§2) The corresponding LCMS chromatogram were recorded and the conversions were calculated by integration of each peak.
(§3) • 1) LCMS spectra were obtained using Agilent 1200G1956A or SHIMADZU LCMS-2020. • Standard LCMS conditions were as follows (running time 1.55 minutes): • Acidic condition: Mobile Phase A: 0.0375% TFA in water (v/v). Mobile Phase B: 0.01875% TFA in acetonitrile (v/v); Column: Kinetex EVO C18 30*2.1 mm, 5 μm. • Basic condition: Mobile Phase A: 0.025% NH3·H2O in water (v/v). Mobile Phase B: Acetonitrile; Column: Kinetex EVO C18 2.1×30 mm, 5 μm. • 2) Conversion (%)=peak area 1/(peak area 1+peak area 2)*100%, peak area 1 is the integration of hydrolyzed product, peak area 2 is the integration of starting material.

[4] = Hydrolysis Assay - Condition 1 (SGF); assay type: physicochemical; conditions: Condition 1: SGF with pepsin pH 1.5, 37° C., 0.5 mM
Protocol: 50 uL of compound (10 mM) in DMSO was diluted into 950 uL of Simulated Gastric Fluid (SGF) with pepsin (pH 1.5) to a final concentration of 0.5 mM. The hydrolysis kinetics were conducted at 37° C. and measured by LCMS at a certain time interval.
as §2, §3

[5] = Plasma Stability Assay (Example A3), human plasma; assay type: in vitro ADME; conditions: 10 μM, 37° C., prodrug remaining
Source text: (§4) The data is represented in the table below.

[6] = Plasma Stability Assay (Example A3), rat plasma; assay type: in vitro ADME; conditions: 10 μM, 37° C., prodrug remaining
Source text: as §4

SMILES	Prodrug (%) ([1]; 0 min)	Prodrug (%) ([1]; 15 min)	Prodrug (%) ([1]; 30 min)	Prodrug (%) ([1]; 60 min)	Prodrug (%) ([1]; 120 min)	Prodrug (%) ([1]; 240 min)	Prodrug (%) ([2]; 0 min)	Prodrug (%) ([2]; 15 min)	Prodrug (%) ([2]; 30 min)	Prodrug (%) ([2]; 60 min)	Prodrug (%) ([2]; 120 min)	Prodrug (%) ([2]; 240 min)	Conversion (%) ([3]; 1 min)	Conversion (%) ([3]; 5 min)	Conversion (%) ([3]; 30 min)	Conversion (%) ([3]; 1 h)	Conversion (%) ([3]; 4 h)	Conversion (%) ([3]; 24 h)	Conversion (%) ([4]; 1 min)	Conversion (%) ([4]; 5 min)	further results
COc1ccc([C@@]23CCC(OC(=O)N(C)C)=C[C@@H]2N(C)CC3)cc1OC [Compound 324, [(3aS,7aS)-3a-(3,4-dimethoxyphenyl)-1-methyl-3,4,5,7a-tetrahydro-2H-indol-6-yl] N,N-dimethylcarbamate]	100.0	98.2	98.7	>99	>99	96.5	100.0	97.4	94.4	94.9	92.6	88.9	0	0	0	0	0	0	0	0	Conversion (%) ([4]; 30 min): 0%; Conversion (%) ([4]; 1 h): 0%; Conversion (%) ([4]; 4 h): 0%; Conversion (%) ([4]; 24 h): 0%
CCN(C)C(=O)OC1=C[C@@H]2N(C)CC[C@]2(c2ccc(OC)c(OC)c2)CC1 [Compound 326, [(3aS,7aS)-3a-(3,4-dimethoxyphenyl)-1-methyl-3,4,5,7a-tetrahydro-2H-indol-6-yl]N-ethyl-N-methyl-carbamate]	100.0	98.2	99.9	98.4	>99	93.9	100.0	>99	96.6	>99	>99	98.5	0	0	0	0	0	0	0	0	Conversion (%) ([4]; 30 min): 0%; Conversion (%) ([4]; 1 h): 0%; Conversion (%) ([4]; 4 h): 0%; Conversion (%) ([4]; 24 h): 0%
COc1ccc([C@@]23CCC(OP(=O)(Oc4ccccc4)Oc4ccccc4)=C[C@@H]2N(C)CC3)cc1OC [Compound 320, [(3aS,7aS)-3a-(3,4-dimethoxyphenyl)-1-methyl-3,4,5,7a-tetrahydro-2H-indol-6-yl]diphenyl phosphate]	100	95.7	98.5	95.7	98.2	95.3	100	58.5	46.5	30.7	19.4	11.7	0	0	0	0	0	0	0	0	Conversion (%) ([4]; 30 min): 0%; Conversion (%) ([4]; 1 h): 0%; Conversion (%) ([4]; 4 h): 0%; Conversion (%) ([4]; 24 h): 0%
COc1ccc([C@@]23CCC(OP(=O)(OCc4ccccc4)OCc4ccccc4)=C[C@@H]2N(C)CC3)cc1OC [Compound 319, [(3aS,7aS)-3a-(3,4-dimethoxyphenyl)-1-methyl-3,4,5,7a-tetrahydro-2H-indol-6-yl] dibenzyl phosphate]	–	–	–	–	–	–	–	–	–	–	–	–	2	4	5	10	20	59	2	5	Conversion (%) ([4]; 30 min): 25%; Conversion (%) ([4]; 1 h): 26%; Conversion (%) ([4]; 4 h): 60%; Conversion (%) ([4]; 24 h): 61%
COc1ccc([C@@]23CCC(OP(=O)(O)OCOC(=O)C(C)C)=C[C@@H]2N(C)CC3)cc1OC [Compound 408, [[(3aS,7aS)-3a-(3,4-dimethoxyphenyl)-1-methyl-3,4,5,7a-tetrahydro-2H-indol-6-yl]oxy-hydroxy-phosphoryl]oxymethyl 2-methylpropanoate]	–	–	–	–	–	–	–	–	–	–	–	–	–	–	–	–	–	–	–	–	Prodrug (%) ([5]; 0 min): 100.0%; Prodrug (%) ([5]; 10 min): 94.2%; Prodrug (%) ([5]; 30 min): 82.6%; Prodrug (%) ([5]; 60 min): 69.1%; Prodrug (%) ([5]; 120 min): 45.4%; Prodrug (%) ([5]; 240 min): 23.5%; Prodrug (%) ([6]; 0 min): 100.0%; Prodrug (%) ([6]; 10 min): 63.8%; Prodrug (%) ([6]; 30 min): 29.2%; Prodrug (%) ([6]; 60 min): 8.2%; Prodrug (%) ([6]; 120 min): 0.8%; Prodrug (%) ([6]; 240 min): 0.0%
COc1ccc([C@@]23CCC(OC(=O)N4CCN(C)CC4)=C[C@@H]2N(C)CC3)cc1OC [Compound 327, [(3aS,7aS)-3a-(3,4-dimethoxyphenyl)-1-methyl-3,4,5,7a-tetrahydro-2H-indol-6-yl]4-methylpiperazine-1-carboxylate]	100	>99	98.9	>99	>99	94.4	100	>99	>99	>99	>99	>99	0	0	0	0	0	0	0	0	Conversion (%) ([4]; 30 min): 0%; Conversion (%) ([4]; 1 h): 0%; Conversion (%) ([4]; 4 h): 0%; Conversion (%) ([4]; 24 h): 0%
COc1ccc([C@@]23CCC(OP(=O)(O)O)=C[C@@H]2N(C)CC3)cc1OC [Compound 359, [(3aS,7aS)-3a-(3,4-dimethoxyphenyl)-1-methyl-3,4,5,7a-tetrahydro-2H-indol-6-yl] dihydrogen phosphate]	100	69.0	65.1	50.4	32.8	25.6	100	>99	82.7	79.0	50.7	59.1	–	–	–	–	–	–	–	–	–
COc1ccc([C@@]23CCC(OP(=O)(O)OCOC(=O)C(C)(C)C)=C[C@@H]2N(C)CC3)cc1OC [Compound 409, [[(3aS,7aS)-3a-(3,4-dimethoxyphenyl)-1-methyl-3,4,5,7a-tetrahydro-2H-indol-6-yl]oxy-hydroxy-phosphoryl]oxymethyl 2,2-dimethylpropanoate]	–	–	–	–	–	–	–	–	–	–	–	–	–	–	–	–	–	–	–	–	Prodrug (%) ([5]; 0 min): 100.0%; Prodrug (%) ([5]; 10 min): >99%; Prodrug (%) ([5]; 30 min): 95.2%; Prodrug (%) ([5]; 60 min): 93.0%; Prodrug (%) ([5]; 120 min): 87.3%; Prodrug (%) ([5]; 240 min): 75.8%; Prodrug (%) ([6]; 0 min): 100.0%; Prodrug (%) ([6]; 10 min): 89.9%; Prodrug (%) ([6]; 30 min): 81.2%; Prodrug (%) ([6]; 60 min): 71.0%; Prodrug (%) ([6]; 120 min): 44.5%; Prodrug (%) ([6]; 240 min): 22.7%
